Data as given in patent publication US4789675A, “1,4-benzoxazine derivatives and pharmaceutical use” (priority 1986, dated 1988).

What was measured:
[1] = test system: caffeine-induced contraction of rabbit aorta strip depending on intracellular Ca^++; experiment: Intracellular Ca++ antagonism: inhibition of caffeine-induced contraction of aorta strip in Ca-free/EGTA solution; conditions: Oryctolagus cuniculus, caffeine 20 mM, Ca++ 0 mM, EGTA 5 mM, read-out: Inhibitory percent (caffeine contraction); for inhibition at 10 µM: compound 10^-5 M
Description: A spiral strip of aorta of a rabbit (2 to 3 mm width, aobut 3 cm length) was allowed to equilibrate by hanging under 2 g force in a Krebs-Henseleitsolution. The solution was saturated with a mixture gas of 97% O2 -3% CO2, which was warmed to 37° C. The strip was moved into another Krebs-Henseleit solution containing Ca^++ OmM and EGTA 5 mM. Five minutes later, caffeine (20 mM) was added to the solution. The resulting contraction of the strip was made as the index of the contraction depending on intracellular Ca^++.

[2] = test system: ischemia-reperfusion-induced ventricular arrhythmia in rats; experiment: Effect on the ischemia-reperfusion-induced ventricular arrhythmia in rats; type: in vivo, rat; conditions: 3, 10, and 20 mg/kg given orally
Description: Male Sprague-Dawley rats, 9 to 10 week old, were orally given the compounds or tap water at a volume of 5 ml/kg. After one hour, the animals were anesthetized with sodium pentobarbital (50 mg/kg, by intraperitoneal injection), and they were subjected to thoractomy under artificial respiration, and the left anterior descending coronary artery was occluded for five minutes. The incidences of ventricular tachycardia, ventricular fibrilation and cardiac arrest for ten minutes after reperfusion of the blood were calculated.

[3] = test system: acute renal failure in rats; experiment: Effect on acute renal failure in rats (plasma urea nitrogen, BUN); type: in vivo, rat; conditions: 1, 3 and 10 mg/kg given orally
Description: Male sprague-Dawley rats, 6 week old, were orally given the compunds or tap water at a volume of 5 ml/kg. After one hour, the animals were anesthetized with sodium pentobarbital. The animals were subjected to laparotomy, and the left renal artery was clamped completely for one hour. The clamp was undone, and the incision was closed. The animals were again given orally the compounds or tap water 20 hours later. Further four hours later, the animals were again anesthetized, and the blood was obtained from the abdominal aorta. The plasma was separated for measurement of urea nitrogen (BUN).

[4] = Acute toxicity (oral, 7 days observation); conditions: rat, in vivo, male rats, five animals/group, seven days
Excerpt: Male Wister rats aged five weeks (five animals/group) were orally given the test compounds (Example No. 1, 14, 15 and 18) suspended in a 5% solution of gum arabic. Each animal so treated was observed over a period of seven days.

intracellular Ca^++ = conditions: (2) Ca++ liberated from intracellular store; (3) influx through receptor-operated channel; cited from earlier work
[5] = cited from earlier work
[6] = in vivo; cited from earlier work

O=C1Nc2cc3c(cc2OC1CCCN1CCN(c2ccc(F)cc2)CC1)CCCC3 (stereo not shown) [Example 1, 2-{3-[4-(4-fluorophenyl)-1-piperazinyl]propyl}-6,7,8,9-tetrahydro-2H-naphtho[2,3-b][1,4]oxazin-3(4H)-one]
inhibition at 10 µM [1]: 87% | inhibition at 1 µM ([1]; compound 10^-6 M): 60% | incidences of cardiac functional abnormalities [2]: inhibited the incidences of cardiac functional abnormalities in a dose-dependent manner | increase in BUN [3]: inhibited the increase in BUN | LD50 at 168 h [4]: ≥ 300 mg/kg

NCCCCCCNS(=O)(=O)c1cccc2c(Cl)cccc12 [Example W-7]
action on intracellular Ca++ (intracellular Ca^++): weak in action

CCN(CC)CCCCCCCCOC(=O)c1cc(OC)c(OC)c(OC)c1 [TMB-8]
inhibition at 10 µM [1]: 48% | action on intracellular Ca++ (intracellular Ca^++): weak in action | antihypertensive action in vivo [5]: do not display antihypertensive action in vivo

COC(=O)C1=C(C)NC(C)=C(C(=O)OC)C1c1ccccc1[N+](=O)[O-] [nifedipine]
action on intracellular Ca++ (intracellular Ca^++): hardly acts on (2) and (3)

COc1cc2nc(N3CCN(C(=O)c4ccco4)CC3)nc(N)c2cc1OC [prazosin]
side effects [6]: orthostatic hypotension often observed

CN1CCN(CCCN2c3ccccc3Sc3ccc(C(F)(F)F)cc32)CC1 [trifluoperazine]
action on intracellular Ca++ (intracellular Ca^++): showing antagonism against intracellular Ca^++ | side effects [6]: side effects e.g. on the central nervous system
